Experimental findings from patent US8470889B2 (TRT Pharma Inc., priority 2008, dated 2013) are described below.

Like-named read-outs stand apart in the source and are kept apart here.

One series deals with PC-3 cells. The experiment in a line: MTT cell growth inhibition, PC-3.
A further series relates to LNCaP cells. The experiment in a line: MTT cell growth inhibition, LNCaP.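 Note: MTT formazan absorbance at 600 nm read after 72 h of compound exposure, IC50 fitted by nonlinear regression of dose-response curves, samples run in triplicate.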
A further series relates to 22Rv1 cells. Briefly: MTT cell growth inhibition, 22Rv1. To be noted: read-out: Cellular IC50 (μM) 22Rv1, MTT.
Another series concerns C4-2B cells. The experiment in a line: MTT cell growth inhibition, C4-2B.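 Note: cells treated with a dilution series for 72 h, then MTT added and absorbance read at 600 nm, IC50 fitted from dose-response curves by nonlinear regression.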
The mark [1] stands for this setting: read-out: Cellular IC50 (μM) PC3, Table 8.
Setting [2] is: read-out: Cellular IC50 (μM) LNCaP, Table 8.
Setting [3] is: read-out: Cellular IC50 (μM) PC-3, Table 9.
[4] abbreviates: read-out: Cellular IC50 (μM) LNCaP, Table 9.
[5] abbreviates: read-out: Cellular IC50 (μM) C4-2B, Table 8.
Setting [6] is: read-out: IC50 (μM) PC-3, Table 1, 72 h, maximum tested concentration 50 μM.
Setting [7] is: read-out: IC50 (μM) LNCaP, Table 1, 72 h.
Where [8] appears, read: read-out: IC50 (μM) C4-2B, Table 1, 72 h.

Procedure for C4-2B cells: (§1) MDA PCa 2b was seeded at the same density in medium BRFF-HPC1 (Athena Enzyme Systems, Baltimore, Md., USA) supplemented with 20% FBS. After overnight incubation, the medium was changed to a fresh medium containing different concentrations of test compounds diluted from stock DMSO solution. The final concentration of DMSO is 0.5%. After 72 h of incubation with test compounds, 20 μL of 3-(4,5-dimethyl thiazol-2-yl)-2,5-diphenyltetrazolium bromide (MTT) solution (5 mg/mL in PBS) were added to each well and incubated further for 2 h. Next, the supernatant was aspirated and the MTT formazan formed by metabolically viable cells was dissolved in 100 μL of isopropanol. The plates were mixed for 30 min, and the absorbance was measured at 600 nm on a plate reader (FLUOstar OPTIMA, BMG LabTech). All samples were in triplicate. The IC50 values were determined from dose-response curves by nonlinear regression using PRISM v5.00 (GraphPad Software Inc, La Jolla, Calif., USA).
(§2) The in vitro cytotoxicity of 1-20 were evaluated by MTT assays in a panel of prostate cancer cell lines, including LNCaP, MDA PCa 2b, 22Rv1, C4-2B and PC-3.
Procedure for LNCaP cells: as §1, §2
Procedure for PC-3 cells: as §1, §2

Take `CC1=C(/C=C/C(=O)/C=C/c2cccc(OC(F)(F)F)c2)C(C)(C)CCC1O` (stereo not shown) [Compound B46]: the figures for the IC50 in the series on PC-3 cells (setting [1]) and in the series on LNCaP cells (setting [2]) were 1.7 µM and 1.4 µM, respectively.
With `Cc1ccc2[nH]cc(/C=C/C(=O)/C=C/C3=CC(O)CCC3(C)C)c2c1` (stereo not shown) [Compound B82], the IC50 stood at 10.6 µM with PC-3 cells (setting [3]); 3.8 µM in the series with LNCaP cells (setting [4]); 7.3 µM with 22Rv1 cells (Table 9); 6.8 µM in the series with C4-2B cells (read-out: Cellular IC50 (μM) C4-2B, Table 9).
In the case of `CC1=C(/C=C/C(=O)/C=C/c2cccc(Oc3ccccc3)c2)C(C)(C)CCC1O` (stereo not shown) [Compound B48], the IC50 is 2 µM in the series with PC-3 cells (setting [1]) and 2.4 µM with LNCaP cells (setting [2]).
For the compound `COc1cc(OC)c(/C=C/C(=O)/C=C/C2=C(C)C(O)CCC2(C)C)c(OC)c1` (stereo not shown) [Compound B74], the IC50 in the series on PC-3 cells (setting [1]) was over 25 µM; with LNCaP cells (setting [2]), 15.5 µM; in the series with 22Rv1 cells (Table 8) it was 21 µM; with C4-2B cells (setting [5]) it was 11.6 µM.
The like results for `CCOC(OCC)c1ccc(/C=C/C(=O)/C=C/C2=C(C)C(O)CCC2(C)C)cc1` (stereo not shown) [Compound B61] were, in that order, 3.7 µM, 1.8 µM, 2.1 µM and 1.7 µM.
On to `CC1=C(/C=C/C(=O)/C=C/c2ccc(OC(F)(F)F)cc2)C(C)(C)CCC1O` (stereo not shown) [Compound B54], for which the IC50 in the series with PC-3 cells (setting [1]) turned out to be 6.6 µM; with LNCaP cells (setting [2]), 1.3 µM.
Consider `COc1ccc(/C=C/C(O)=C/C(=O)/C=C/C2=C(C)CCCC2(C)C)cc1OC` [Compound 3], for which the figures for the IC50 in the series with PC-3 cells (setting [6]), in the series on LNCaP cells (setting [7]) and in the series with C4-2B cells (setting [8]) were 47.9 µM, 26.4 µM and 30.6 µM, respectively.
In the case of `CC1=C(/C=C/C(=O)/C=C/c2ccc(N(C)C)cc2)C(C)(C)CCC1O` (stereo not shown) [Compound B63], the IC50 in the series on PC-3 cells (setting [1]) turned out to be 13 µM; in the series with LNCaP cells (setting [2]), 8.8 µM; in the series on 22Rv1 cells (Table 8), 42 µM.
The like results for `COc1ccc(/C=C/C(=O)/C=C/C2=C(C)C(O)CCC2(C)C)cc1OC` (stereo not shown) [Compound B70] were, in that order, 6.8 µM, 2.1 µM and 8.2 µM.
As to `CCn1c2ccccc2c2cc(/C=C/C(=O)/C=C/C3=CC(O)CCC3(C)C)ccc21` (stereo not shown) [Compound B91], the IC50 with PC-3 cells (setting [3]) worked out at 8.6 µM; in the series on LNCaP cells (setting [4]), 3.8 µM; in the series on 22Rv1 cells (Table 9) it was 4.7 µM.
As for `COc1ccc(/C=C/C(O)=C/C(=O)/C=C/C2=C(C)CCCC2(C)C)cc1O` [Compound 2], the IC50 in the series with PC-3 cells (setting [6]) stood at 38.3 µM; in the series on LNCaP cells (setting [7]), 25.9 µM; with C4-2B cells (setting [8]), 23.1 µM.
For `CC1=C(/C=C/C(=O)/C=C/c2ccc(N3CCOCC3)cc2)C(C)(C)CCC1O` (stereo not shown) [Compound B60], the IC50 with PC-3 cells (setting [1]) is 16 µM; in the series on LNCaP cells (setting [2]), 3.9 µM.
`CC1(C)CCC(O)C=C1/C=C/C(=O)/C=C/c1ccc2c(c1)OC(F)(F)O2` (stereo not shown) [Compound B77]: the IC50 in the series with PC-3 cells (setting [3]) stood at 3.2 µM; in the series with LNCaP cells (setting [4]), 1.1 µM.
As to `CC1=C(/C=C/C(=O)/C=C/c2cccc(OC(F)(F)C(F)F)c2)C(C)(C)CCC1O` (stereo not shown) [Compound B47], the IC50 with PC-3 cells (setting [1]) was 4.6 µM; in the series on LNCaP cells (setting [2]), 1.6 µM; in the series with 22Rv1 cells (Table 8) it was 1.8 µM.
With `Cn1c(/C=C/C(=O)/C=C/C2=CC(O)CCC2(C)C)cc2ccccc21` (stereo not shown) [Compound B80], the IC50 with PC-3 cells (setting [3]) came out at 19.8 µM; in the series on LNCaP cells (setting [4]), 7 µM; in the series on 22Rv1 cells (Table 9), 9.5 µM.
For the compound `COc1ccc(/C=C/C(O)=C/C(=O)/C=C/C2=C(C)CCCC2(C)C)cn1` [Compound 8], the results for the IC50 in the series on PC-3 cells (setting [6]) and in the series with LNCaP cells (setting [7]) were 52.2 µM and 25.1 µM, respectively.
For `CC(=O)/C=C/C1=C(C)CCCC1(C)C` [β-Ionone, reference compound], the “Cellular IC50 (μM) PC-3” value in the series with PC-3 cells (Table 2, 72 h, max tested 50 μM (β-ionone 150 μM)) is recorded as “Inactive^e”. For the same compound, in the series on PC-3 cells (Table 5, β-ionone max tested 150 μM), the “Cytotoxicity, IC50 (μM) PC-3” value is listed as “Inactive^b”. Further, the IC50 is 151 µM in the series on LNCaP cells (read-out: Cellular IC50 (μM) LNCaP, Table 2, 72 h) and 151 µM with LNCaP cells (read-out: Cytotoxicity, IC50 (μM) LNCaP, Table 5).
Turning to `CCOc1ccc(/C=C/C(O)=C/C(=O)/C=C/C2=C(C)CCCC2(C)C)cc1OCC` [Compound 4], the IC50 was 53.3 µM with PC-3 cells (setting [6]), 30 µM with LNCaP cells (setting [7]) and 22.6 µM with C4-2B cells (setting [8]).
With `CC1=C(/C=C/C(=O)/C=C/c2ccc(O)cc2)C(C)(C)CCC1O` (stereo not shown) [Compound B52], in the series with PC-3 cells (Table 8), the “Cellular IC50 (μM) PC3” value was “Int”. In addition, the IC50 in the series on LNCaP cells (setting [2]) was 8.9 µM; in the series on 22Rv1 cells (Table 8), 10.6 µM.
